Where two headings read alike, the source gives them in different places.
What was measured:
patients with FSGS = experiment: Phase 2 open-label basket study, FSGS cohort: urine protein to creatinine ratio (UPCR); type: in vivo, human; conditions: 0.75 mg atrasentan daily; week 24 vs week 0; twenty patients with FSGS
From the text: Subjects will be enrolled in disease specific cohorts as follows: • Cohort 1: IgAN (with UPCR 0.5 to <1.[…]) • Cohort 2: FSGS • Cohort 2b: FSGS (dose escalation) • Cohort 3: Alport syndrome • Cohort 4: DKD • Cohort 5: FSGS (higher dose cohort) Subjects in Cohorts 2 and 5 (FSGS) include the following characteristics: • Biopsy-confirmed FSGS or documentation of a genetic mutation in a podocyte protein associated with FSGS. […] Urine Protein to Creatinine Ratio (UPCR) will be assessed. Assessment of proteinuria plays an important role in the diagnosis of kidney disease and in monitoring disease activity (Zhao, 2016). UPCR is widely used for proteinuria evaluation in clinical practice. UPCR will be measured using FMV urine sample and a 24-hour urine collection at timepoints. […] Twenty patients with FSGS were enrolled in the study if the inclusion and exclusion criteria of Example 1 were met.

subjects with DKD = conditions: RADAR Phase 2b, cited from earlier work
[1] = 0.75 mg dose; DKD; PK-PD exposure-response model; cited from earlier work
[2] = test system: patients with diabetic kidney disease; conditions: cited from earlier work
[3] = daily dose 0.75 mg, dose-range finding studies and exposure-response analyses

For CCCCN(CCCC)C(=O)CN1C[C@H](c2ccc3c(c2)OCO3)[C@@H](C(=O)O)[C@@H]1c1ccc(OC)cc1 [Atrasentan, (2R,3R,4S)-4-(1,3-benzodioxol-5-yl)-1-[2-(dibutylamino)-2-oxoethyl]-2-(4-methoxyphenyl)pyrrolidine-3-carboxylic acid], the “reduction in UPCR compared the baseline measurement” value (patients with FSGS) is listed as 38.3%, the “fluid retention (body weight, edema incidence, treatment discontinuations)” value (subjects with DKD; 0.75 mg dose) is listed as “only minimal evidence for fluid retention” and the proteinuria reduction (subjects with DKD; 0.75 mg dose) is listed as 35%. For the same compound, the “fluid retention related adverse events” value (subjects with DKD; 1.25 mg dose) was “greater fluid retention related adverse events including treatment discontinuation”, the proteinuria reduction (subjects with DKD; 1.25 mg dose) was 38% and the Ctrough range [1] was 1.2 to 2.2 ng/mL. For the same compound, the UACR [2, 3] was “marked reduction”, the fluid retention [2, 3] was “only modest fluid retention” and the “risk of renal events (doubling of serum creatinine or end-stage kidney disease)” value ([2]; patients with diabetic kidney disease) was “significantly reducing the risk of renal events”. For the same compound, the “most common adverse events associated with treatment” value ([2]; subjects with DKD) was “fluid retention, hemodilution, and vasodilation”.
